Laboratory results: patent publication US7115574B2, “System and method for support legacy operating system booting in a legacy-free system” (priority 2001, dated 2006)

Tests used:
[1] = system: inflammation induced in the hind paw by kappa carrageenan; test: Kappa carrageenan hind paw inflammation in spinal cord intact and transected mice; format: in vivo, BALB/c mice; conditions: for effect on carrageenan-induced paw swelling: spinal cord transected mice; for inhibition of inflammation induced in the hind paw: central administration, spinal cord intact mice
Description: Because surgical dissection of trigeminal structures that innervate the ear of the mouse is very difficult, tests to learn whether descending neural pathways are essential to the anti-inflammatory activity of centrally administered α-MSH peptides were performed in mice with inflammation induced in a hind paw. In these experiments, each animal was anesthetized with pentobarbital sodium solution as above. Baseline foot pad thickness of both hind paws was measured with a spring-loaded micrometer (Swiss Precision Instruments, Los Angeles, Calif.). Paw thickness was expressed in units of 10^−3 cm; average thickness of unstimulated paws was 171.5×10^−3 cm across shipments of animals. Kappa carrageenan (Sigma) dissolved in saline (0.05%, 20 μl) was injected (28 gauge allergy test syringe) into one footpad, and saline (20 μl) was injected into the other. For the analyses, the increase in thickness of the control saline-injected paw of each animal was subtracted from that of the carrageenan-injected paw, to eliminate the influence of mechanical injury and volume of the injected fluid. […] Treatment with the locally acting steroid reduced swelling up to 29% (average, relative to saline controls) at 4.5 hr. after carrageenan.
However, a standardized crushing of lumbar vertebrae with a hemostat (Kelly) was effective in severing the cord; no deaths were caused by this treatment. […] The experiments were limited to 4.5 hr to reduce problems of bowel and bladder dysfunction. Immediately after the 4.5 hr measurements all mice were killed with an overdose of sodium pentobarbital.
(§1) Because of the size of the experiments and the requirement for several shipments of animals over time, several experiments were performed, each with complete treatment and control groups drawn from the same shipment of mice. Omnibus analysis of variance techniques (Dynastat, Washington, D.C.) were used to test overall differences among group means. Tukey's protected t test was used to compare individual means. Probability values of <0.05 were considered significant.

[2] = system: C. albicans killing by human neutrophils; test: C. albicans killing by human neutrophils; format: cell-based; conditions: 10^−12M to 10^−4M; 2 hours at 37° C.; p<0.01
Description: Venous blood (20 ml) from health volunteers was anticoagulated with heparin. Neutrophils were isolated using dextran sedimentation and Ficoll-Hypaque (Sigma Chemical Co., St. Louis, […]., USA) centrifugation. Erythrocytes were lysed via hypotonic shock. Neutrophils represented at least 97% of the cell suspension. Cell viability, estimated by trypan blue exclusion, was >98%. Neutrophils were suspended to a final concentration in HBSS.
C. albicans (1×10^6) were opsonized with human AB serum in a shaking water bath for 30 minutes at 37° C. […] After incubation, the culture tubes were placed on ice to stop growth and extracellular organisms were washed twice with centrifugation at 1000×g at 4° C. A 2.5% sodium desoxycholoate solution was added to obtain a suspension of 10^6 cells/ml. Two 1/100 serial dilutions in HBSS were made to obtain a final suspension of 100 cells/ml. Aliquots of 1 ml were dispensed on blood agar plates and incubated for 48 hours at 37° C. Colony forming units (CFUs) were counted at the end of the incubation period. Experiments were run in triplicate and repeated using blood from 5 different donors.

C. albicans = C. albicans colony forming units (candidacidal activity); format: cell-based; conditions: for C. albicans colony forming units (CFU): FIG. 1, incubation 2 hours at 37° C.; for relative potency in reducing C. albicans viability: FIG. 2, 10^−4M melanocortin peptides
Description: C. albicans (clinical isolate) was obtained from the collection of the Department of Microbiology, Ospedale Maggiore di Milano and maintained on Sabouraud's agar slants and periodically transferred to Sabouraud's agar plates and incubated for 48 hours at 28° C. To prepare a stationary growth phase yeast, a colony was taken from the agar plate and transferred into 30 ml Sabouraud-dextrose broth and incubated for 72 hours at 32° C. Cells were centrifuged and suspended in Hank's balanced salt solution (“HBSS”) to the desired concentration. Viability, determined by the exclusion of 0.01% methylene blue, remained >98%.
C. albicans (1×10^6/ml in HBSS) was incubated in the presence or absence or α-MSH(1-13) (SEQ ID NO: 3) or (11-13) (SEQ ID NO: 1) at concentrations in the range of 10^−15 M to 10^−6 M for 2 hours at 37° C. Cells were then washed in cold distilled water and diluted with HBSS to a concentration of 100 organisms/ml. One-ml aliquots were dispensed on blood agar plates and incubated for 48 hours at 37° C. Organism viability was estimated from the number of colonies formed.
In subsequent experiments using familiar procedures we compared activity of α-MSH(4-10) (SEQ ID NO: 10), (6-13) (SEQ ID NO: 2), (11-13) (SEQ ID NO: 1), ACTH(1-39) (SEQ ID NO: 9), (18-39) (SEQ ID NO: 11) and fluconazole, the latter an established antifungal agent. Melanocortin peptides and fluconazole were tested in concentrations of 10^−6 M to 10^−4 M. There were at least six replicates for each concentration of peptide. […]

[3] = Lipton and Catania, Immunol. Today 1997; cited from earlier work
[4] = system: edema caused by intradermal injection of recombinant human IL-1β in the mouse ear; test: IL-1β-induced ear edema with centrally administered α-MSH and receptor antagonists; format: in vivo, BALB/c mice; conditions: α-MSH(1-13) given centrally with propranolol injected centrally
Description: See Macaluso, A., McCoy, D., Ceriani, G., Watanabe, T., Biltz, J., Catania, A., and Lipton, J. M., Anti-inflammatory Influences of a-MSH Molecules: Central Neurogenic and Peripheral Actions, 14(4), J. of Neuroscience 2377-2382 (1994). Female BALB/c mice (Simonsen Laboratories, Gilroy, Calif.), 7-8 weeks old, were housed at 23-25° C. in groups not exceeding five animals per cage [28 cm (L)×18 cm (W)×13 cm (H)]. Before the experiments they were acclimatized for not less than 1 week before experimentation to standard lighting and temperature conditions with food and water freely available.
Mice were anesthetized with 10% pentobarbital sodium solution (1 mg/mouse, 50 mg/ml, Nembutal sodium solution; Abbott Laboratories, North Chicago, Ill.). Baseline ear thickness measurements were taken with a spring-loaded micrometer (Swiss Precision Instruments, Los Angeles, Calif.). Ear thickness was expressed in centimeters and was measured at least twice at each time point. The average thickness of unstimulated ears was […]. Inflammation was induced by injecting 20 μl of recombinant human IL-1β (1500 U; Genzyme, Cambridge, Mass.) directly into the skin (intradermally) of one ear of each mouse using a 28 gauge needle (Hiltz et al., 1992). Measures of ear thickness were repeated 4 and 6 hr later, while the mice were under sodium pentobarbital anesthesia.
Several agents were administered at the time of ear challenge to pharmacologically block certain receptors: atropine (Sigma Chemical Co.; 150 μg i.p.), a muscarinic receptor blocker that acts on autonomic end-organ receptors, was chosen because of links between inflammation and modulation of pain and the finding that muscarinic antagonists increase pain threshold (Hartvig et al., 1989); phentolamine (Sigma; 150 μg i.p.) an agent that competes for occupancy of α-adrenergic receptors; propranolol (Sigma; 150 μg, i.p.; 30 μg, i.c.v.), a nonspecific competitive antagonist for β-adrenergic receptors.
as §1

Substance | effect on carrageenan-induced paw swelling ([1]; given intraperitoneally) | effect on carrageenan-induced paw swelling ([1]; given intraperitoneally, listed as tripeptide) | killing of C. albicans by human neutrophils [2] | C. albicans colony forming units (CFU) (C. albicans) | relative potency in reducing C. albicans viability (C. albicans) | inhibition of inflammation induced in the hind paw ([1]; 3 hr) [%] | inhibition of inflammation induced in the hind paw ([1]; 4.5 hr) [%] | effect on carrageenan-induced paw swelling ([1]; centrally injected) | toxicity [3] | inhibition of ear edema by α-MSH ([4]; 4 hr) [%] | inhibition of ear edema by α-MSH ([4]; 6 hr) [%]
Ac-Lys-Pro-Val-NH2 [α-MSH(11-13)] | even more effective at reducing swelling | marked inhibitory effect on inflammation | enhanced the killing | greatly reduced | most effective |  |  |  |  |  | 
SYSMEHFRWGKPV [α-MSH(1-13)] | significant, although smaller, inhibitory effect |  | enhanced the killing | greatly reduced | most effective | 57 | 29 | had no effect on paw swelling | very low toxicity | 36 | 32
